Measured values from patent publication US20090022739A1, “MODULATING THE KV1.1 VOLTAGE-GATED POTASSIUM CHANNEL IN T-CELLS FOR REGULATING THE […] AND SECRETION OF TUMOR NECROSIS FACTOR ALPHA (tnf-ALPHA) AND TREATING HUMAN DISEASE OR INJURIES MEDIATED BY […] HIGH OR LOW LEVELS OF TNF-ALPHA” (priority 2005, published 2009).
Like-named read-outs stand apart in the source and are kept apart here. No end group written: not given here.

What was measured:
normal human T-cells = format: cell-based; details: for effect on DTX-K-induced TNF-α secretion: 100 μM blocker added 5 min before 100 nM DTX-K, FIG. 2K; for fold increase in TNFα secretion: FIG. 1A, DTX-K 100 nM, other blockers at highest concentration used
Protocol: Human T-Cells: Normal human T-cells were purified from peripheral blood of healthy donors as described (Levite et al, 2000; Ganor et al, 2003; Levite t al, 1998), and the resulting cell population, containing ≧90% T-cells, was suspended in RPMI medium supplemented with 10% FCS, 1% L-Glutamine and antibiotics (Biological Industries, Bet Haemek, Israel) and maintained at 2×10^6 cells/ml (37° C./5% CO2).
Determination of TNF-α, IFN-γ, IL-10 and IL-4 by ELISA: Freshly-purified normal resting human T-cells (2×10^6/ml) were incubated in 24-well plates (Costar, Corning, N.Y.) and the various channel blockers were added. […] Cytokine levels were measured in supernatants after 24 hours for TNF-α and IFN-γ and after 72 hours for IL-10 and IL-4, by quantitative sandwich ELISA (R&D, Minneapolis, Minn.), according to the manufacturer's instructions. […]
These 12 blockers were selected on the basis of their reported ability to block most types of K^+, Na^+, Ca^2+ and Cl^− channels expressed in T-cells (Deutsch et al, 1986; Lewis et al, 1995; Lewis et al, 1988; Rader et al, 1996; Freedman et al, 1995; Koo et al, 1997; Lin et al, 1993; Ishida et al, 1993; Jensen et al, 1999; Kotturi et al, 2003; Phipps et al, 1996; Verheugen et al, 1997; Levite et al, 2000; Chandy et al, 1984). The levels of TNFα secreted into the culture media were tested 24 hours later by ELISA. For positive control, the cells were exposed to the potent phorbol ester PMA, know to activate T-cells in a non-specific manner. The results are shown in FIG. 1A and represent fold increase ±SD TNF-α secretion tested in 2-3 independent experiments. Each ion channel blocker was examined in at least two independent experiments, and at several concentrations covering its effective range (see Materials and Methods). The numbers in each figure next to each blocker represent the highest molar concentration used. Statistical analysis: *P=0.0001, 0.0005, 0.0011 and 0.0005 vs. untreated for MgTX, KTX, DTX-K and PMA, respectively (Student's t-test).

ion channels = details: manufacturer's data sheets and/or the literature; cited from earlier work
[1] = test system: melanoma in-transit metastases; details: ILP; cited from earlier work
[2] = test system: cloned Kv1.1, Kv1.2 and Kv1.6 channels; details: cited from earlier work
Kv1.1 [3] = biological target: T1, Kv1.1 (Homo sapiens, UniProt Q09470); details: cited from earlier work
T1 sequence (Q09470 whole entry): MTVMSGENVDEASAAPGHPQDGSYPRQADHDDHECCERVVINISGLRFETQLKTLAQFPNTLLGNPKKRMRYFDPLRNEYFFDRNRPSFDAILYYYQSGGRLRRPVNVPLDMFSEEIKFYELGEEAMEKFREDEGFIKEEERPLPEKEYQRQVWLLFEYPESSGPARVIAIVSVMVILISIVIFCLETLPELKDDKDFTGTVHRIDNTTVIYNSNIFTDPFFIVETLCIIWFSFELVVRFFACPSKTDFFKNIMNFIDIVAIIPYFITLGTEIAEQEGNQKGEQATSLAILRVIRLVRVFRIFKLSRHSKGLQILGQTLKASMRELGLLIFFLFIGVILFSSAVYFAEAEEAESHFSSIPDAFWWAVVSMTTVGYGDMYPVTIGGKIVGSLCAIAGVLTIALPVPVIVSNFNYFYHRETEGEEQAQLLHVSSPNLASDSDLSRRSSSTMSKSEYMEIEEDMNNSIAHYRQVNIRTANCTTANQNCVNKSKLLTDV

Kv1.1 [4] = biological target: T1, Kv1.1; details: Gutman et al, 2003; cited from earlier work
Kv1.3 = biological target: T2, Kv1.3 (Homo sapiens, UniProt P22001); details: cited from earlier work
T2 construct: host or cells: Xenopus laevis oocytes
T2 sequence (P22001 whole entry): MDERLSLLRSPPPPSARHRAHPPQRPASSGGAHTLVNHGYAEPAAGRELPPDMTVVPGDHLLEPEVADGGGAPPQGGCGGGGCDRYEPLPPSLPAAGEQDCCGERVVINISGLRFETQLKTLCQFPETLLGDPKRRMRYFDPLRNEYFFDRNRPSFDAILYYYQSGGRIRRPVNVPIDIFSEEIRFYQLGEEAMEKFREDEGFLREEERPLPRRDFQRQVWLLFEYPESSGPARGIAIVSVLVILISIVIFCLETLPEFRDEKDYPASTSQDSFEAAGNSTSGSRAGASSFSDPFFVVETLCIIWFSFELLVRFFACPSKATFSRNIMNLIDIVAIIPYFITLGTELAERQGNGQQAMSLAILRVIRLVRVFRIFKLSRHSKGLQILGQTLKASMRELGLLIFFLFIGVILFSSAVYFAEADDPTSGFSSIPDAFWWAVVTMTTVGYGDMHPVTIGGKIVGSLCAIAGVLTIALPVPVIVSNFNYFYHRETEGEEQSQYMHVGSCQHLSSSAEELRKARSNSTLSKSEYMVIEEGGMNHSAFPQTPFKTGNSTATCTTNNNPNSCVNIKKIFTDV

Kv1.2 = Kv1.2 (Homo sapiens, UniProt P16389); details: cited from earlier work
[5] = biological target: Kv1.1 voltage-gated potassium channel of normal human peripheral T-cells (human) (UniProt Q09470); assay: cell-based or functional assay
Sequence of Kv1.1 voltage-gated potassium channel of normal human peripheral T-cells (human) (Q09470 whole entry): as the sequence (Q09470 whole entry) above

Shaker B K^+-channels = Shaker B K^+-channels (Drosophila melanogaster, UniProt P08510); details: at 100 nM concentration; cited from earlier work
Sequence of Shaker B K^+-channels (P08510 whole entry): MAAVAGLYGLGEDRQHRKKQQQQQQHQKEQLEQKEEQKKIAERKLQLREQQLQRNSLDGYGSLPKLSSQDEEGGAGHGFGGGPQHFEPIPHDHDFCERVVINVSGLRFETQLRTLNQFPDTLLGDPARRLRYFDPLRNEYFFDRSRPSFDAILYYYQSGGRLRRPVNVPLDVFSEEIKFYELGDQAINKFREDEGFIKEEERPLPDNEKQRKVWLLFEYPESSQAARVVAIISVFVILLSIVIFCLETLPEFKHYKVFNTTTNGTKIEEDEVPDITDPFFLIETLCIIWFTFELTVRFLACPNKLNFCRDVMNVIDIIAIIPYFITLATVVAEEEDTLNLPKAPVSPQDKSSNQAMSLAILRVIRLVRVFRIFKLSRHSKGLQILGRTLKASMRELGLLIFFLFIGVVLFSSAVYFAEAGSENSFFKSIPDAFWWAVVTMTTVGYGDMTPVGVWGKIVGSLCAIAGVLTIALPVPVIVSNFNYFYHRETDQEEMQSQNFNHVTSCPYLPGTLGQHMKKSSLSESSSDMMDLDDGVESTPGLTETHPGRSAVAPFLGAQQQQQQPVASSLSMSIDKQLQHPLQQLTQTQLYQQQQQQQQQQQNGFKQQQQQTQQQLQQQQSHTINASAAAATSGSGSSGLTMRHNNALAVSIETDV

high-grade STS = details: cited from earlier work
[6] = test system: host ED1-positive cells in the liver; details: administration of TNF-α into the brain; Campbell et al, 2005; cited from earlier work
Kv1.1, Kv1.2 and Kv1.3 = details: cited from earlier work
[7] = 24 hours, several effective concentrations, no other stimulus
[8] = multicenter trials in Europe, ILP for STS

Nc1ccncc1 [4-AP, 4-Aminopyridine]
TNF-α up-regulation (normal human T-cells; [7]): no significant TNF-α up-regulation

COC(=O)C1=C(C)NC(C)=C([N+](=O)[O-])C1c1ccccc1C(F)(F)F (stereo not drawn) [+Bay K, R-(+)-Bay K8644]
effect on DTX-K-induced TNF-α secretion (normal human T-cells; 24 hours): prevented completely | TNF-α up-regulation (normal human T-cells; [7]): no significant TNF-α up-regulation

Clc1ccccc1C(c1ccccc1)(c1ccccc1)n1ccnc1 [CLT, Clotrimazole]
TNF-α up-regulation (normal human T-cells): no significant TNF-α up-regulation

N#Cc1cc2[nH]c(=O)c(=O)[nH]c2cc1[N+](=O)[O-] [CNQX]
TNF-α up-regulation (normal human T-cells; [7]): no significant TNF-α up-regulation

O=C(O)c1cc([N+](=O)[O-])ccc1NCCCc1ccccc1 [NPPB]
effective concentrations (ion channels): 100 to 200 µM | effect on DTX-K-induced TNF-α secretion (normal human T-cells; 24 hours): no such interrupting effect | TNF-α up-regulation (normal human T-cells; [7]): no significant TNF-α up-regulation

CCCCCCCCCCCCCC(=O)O[C@@H]1[C@@H](C)[C@@]2(O)[C@@H](C=C(CO)C[C@]3(O)C(=O)C(C)=C[C@@H]23)[C@@H]2C(C)(C)[C@]12OC(C)=O [PMA]
fold increase in TNFα secretion (normal human T-cells; 24 hours, no other stimulus): 41.3 fold increase

C=C[C@H]1C[N@@]2CC[C@H]1C[C@H]2[C@H](O)c1ccnc2ccc(OC)cc12 [Quinine]
effective concentrations (ion channels): 1 to 10 µM | TNF-α up-regulation (normal human T-cells; [7]): no significant TNF-α up-regulation

CC[N+](CC)(CC)CC [TEA, Tetraethylammonium]
TNF-α up-regulation (normal human T-cells): no significant TNF-α up-regulation

NC1=N[C@H](O)[C@H]2[C@H]3O[C@]4(O)O[C@@H]([C@@H](O)[C@@]2(N1)[C@@H]4O)[C@]3(O)CO [TTX, Tetrodotoxin]
TNF-α up-regulation (normal human T-cells): no significant TNF-α up-regulation

N[C@@H](Cc1ccc(N(CCCl)CCCl)cc1)C(=O)O [melphalan]
complete response (CR) rate [1]: ~50% | overall response rate [1]: 80%

Alpha-dendrotoxin
concentration range blocking cloned Kv1.1, Kv1.2 and Kv1.6 channels [2]: low nanomolar range

Kaliotoxin (GVEINVKCSGSPQCLKPCKDAGMRFGKCMNRKCHCTPK) [KTX]
effective concentrations (ion channels): 0.001 to 0.1 µM | Kd (Kv1.1 [3]; bath application to Xenopus laevis oocytes, Mourre et al, 1999, read-out: K(d), recombinant Kv1.1): 1.5 nM | Ki (Kv1.1 [4]): 20 nM | fold increase in TNFα secretion (normal human T-cells; 24 hours, no other stimulus): 15.1 fold increase | Kd (Kv1.3; bath application to Xenopus laevis oocytes, Mourre et al, 1999, read-out: K(d), recombinant Kv1.3): 0.1 nM | Kd (Kv1.2; bath application to Xenopus laevis oocytes, Mourre et al, 1999, read-out: K(d), recombinant Kv1.2): 25 nM

Kaliotoxin (from UniProt P24662 1-38) (peptide)
fold increase in TNFα secretion by human T-cells (ELISA, 24 h) [5]: 15.1 fold

Pi4: 38-amino acid long peptide from the venom of the scorpion Pandinus imperator (IEAIRCGGSRDCYRPCQKRTGCPNAKCINKTCKCYGCS; UniProt P58498 1-38, looked up)
block of Shaker B K^+-channels (Shaker B K^+-channels): blocks completely and reversibly

TNF-α
major response rates, median (high-grade STS; largest single-center studies in STS, range 58%-91%): 76% | median limb salvage rate (high-grade STS; largest single-center studies in STS, range 58%-97%): 84% | median limb salvage rate (high-grade STS; [8]): 82% | overall response rate (high-grade STS; [8]): 76% | increase in the number of host ED1-positive cells accumulated in the liver [6]: up to two fold increase | complete response (CR) rate [1]: 70%-90% | overall response rate [1]: 95%-100%

maurotoxins: natural and synthetic maurotoxins, four disulfide bridges scorpion toxin (VSCTGSKDCYAPCRKQTGCPNAKCINKSCKCYGC; disulfide (positions not given here); also: four disulfide bridges, pairing not given here; UniProt P80719 1-34, looked up)
IC50 (Kv1.1 [3]; Xenopus oocytes, Rochat et al, 1998, read-out: half-effects (IC50), Kv1.1): ~40 nM | IC50 (Kv1.3; Xenopus oocytes, Rochat et al, 1998, read-out: half-effects (IC50), Kv1.3): ~150 nM | IC50 (Kv1.2; Xenopus oocytes, Rochat et al, 1998, read-out: half-effects (IC50), Kv1.2): ~0.8 nM

rCharybdotoxin [CTX]
TNF-α up-regulation (normal human T-cells; [7]): no significant TNF-α up-regulation

rHongotoxin-1: Centruroides limbatus toxin, blocks Kv1.1, Kv1.2 and Kv1.3 (TVIDVKCTSPKQCLPPCKAQFGIRAGAKCMNGKCKCYPH; ends and bridges not checked; cysteine pairing not given here; UniProt P59847 1-39, looked up)
blocking concentration, Kv1.1, Kv1.2 and Kv1.3 (Kv1.1, Kv1.2 and Kv1.3): 0.1 to 0.2 pM

rMargatoxin (TIINVKCTSPKQCLPPCKAQFGQSAGAKCMNGKCKCYPH) [MgTX]
fold increase in TNFα secretion (normal human T-cells; 24 hours, no other stimulus): 6.5 fold increase

rMargatoxin (from UniProt P40755 1-39) (peptide)
fold increase in TNFα secretion by human T-cells (ELISA, 24 h) [5]: 6.5 fold
